In patent US12116371B2, “Substituted pyridines as irreversible inhibitors of menin-MLL interaction” (BIOMEA FUSION, INC., priority 2018, dated 2024):
Like-named read-outs stand apart in the source and are kept apart here.

Columns and labels:
MIAPaCa-2/AMG510 cells = experiment: Proliferation assay, cells in adhesion; format: cell-based; conditions: for IC50: Homo sapiens
MIAPaCa-2 cells = experiment: Proliferation assay, cells in adhesion; format: cell-based; conditions: for IC50: Homo sapiens
KG-1 cells = experiment: Long term proliferation assay, Cell Titer-Glo read-out; format: cell-based; conditions: for IC50: Homo sapiens
Protocol: (§1) Compounds of invention are tested in the 5 suspension lines by 14-day long-term proliferation assay.
(§2) The compound is tested in 10-pt dose titration (client will determine the starting concentration and the dilution scheme) and the final DMSO concentration is kept at 0.2%.
(§3) On Day 0, in a flat bottom 96-well plate, add 100 μL of cells per well at the densities optimized. Prepare compounds in DMSO at 500× final concentration. Dilute the compounds with DMSO at the dilution. Dilute the compounds in media at 3× final concentration. Add 50 μL of compound or DMSO at 3× final concentration to each well. Final volume in each well is 150 μL, and final concentration of DMSO is 0.2%. Also include 3 untreated control wells, by adding 50 μL of media alone. Incubate plates for 96 hours.
(§4) To do this take the total viable cell count calculated using step: • 1. Take the average of the replicates for each dose in order to be used in splitting the cells. • 2. Use a 96 well V-bottom plate to spin down the cells to remove old media and compound to split the cells. • 3. Based on the split ratio place the proper amount of media and cells into the V-bottom plate, and spin the plate at 1100 rpm for 5 minutes. • 4. Following the spin remove the media, careful not to disturb the cell pellet. Re-suspend pellet in 100 μL fresh media, and add to a new 96-well flat bottom plate. • 5. Add fresh compound, in the same manner as Step 3). • 6. Incubate plates for 72 hours. Repeat steps 5)-10) on Day 7. • 7. Incubate plates for 96 hours. Repeat Step 5)-10) on Day 11. • 8. Incubate 72 hours and repeat step 5) to take a final count. • 9. Data Analysis
(§5) To calculate growth for days 4, 7, 11, and 14: • 1. Calculate the split factor for day 4 to 7, day 7 to 11, and day 11-14. The split factor is the viable cells/mL on Day X (either 4, 7 or 11) divided by the density the cells are being split back to. • 2. For growth of cells from day 4 to 7, multiply the day 7 viable cells/mL density by the split factor from day 4. • 3. For growth of cells from day 7 to 11, multiply the day 11 viable cells/mL density by the days 4, and 7 split factors. • 4. For growth of cells from Day 11 to 14, multiply the Day 14 viable cells/mL density by the days 4, 7, and 11 split factors. • 5. Plot growth on semi-log chart (viable cells/mL on Y axis, in log, and days on X axis). • 6. The growth inhibition was calculated with the formula ((untreated cell numbers-treated cell numbers)/untreated cell)). • 7. Calculate the IC50 for each compound in each line using XLFit (Sigmoidal Dose-Response Model, y=(Bottom+((Top-Bottom)/(1+((IC50/×)^Hill))))).

OCI-AML-3 cells = experiment: as above; format: cell-based; conditions: for IC50: Homo sapiens; for % max: OCI-AML3
Protocol: as §1, §2, §3, §4, §5

MV4-11 cells = experiment: Long term proliferation assay, InCell read-out; format: cell-based, human; conditions: for IC50: Homo sapiens
Protocol: as §1, §2, §3, §4, §5

MOLM-13 cells = experiment: Long term proliferation assay, InCell read-out; format: cell-based, human; conditions: for IC50: Homo sapiens
Protocol: as §1, §2, §3, §4, §5

Panc 10.05 cells = experiment: Proliferation assay, cells in adhesion; format: cell-based; conditions: for IC50: Homo sapiens
SK-LU-1/AMG510 cells = experiment: Proliferation assay, cells in adhesion; format: cell-based; conditions: for IC50: Homo sapiens

## CN(C)C/C=C/C(=O)Nc1ccc(CC(=O)Nc2ccc(-c3cc4c(N5CCOCC5)ncnc4[nH]3)cc2)cc1 [Compound 5]
MIAPaCa-2/AMG510 cells; MIA PaCa-2, MIAPaCa-2/AMG510, T4, read-out: IC50
  IC50: 810 nM
MIAPaCa-2/AMG510 cells; MIA PaCa-2, MIAPaCa-2/AMG510, T4, read-out: pIC50 (converted)
  IC50: 813 nM
MIAPaCa-2/AMG510 cells; MIA PaCa-2, MIAPaCa-2/AMG510, T7, read-out: IC50
  IC50: 350 nM
MIAPaCa-2/AMG510 cells; MIA PaCa-2, MIAPaCa-2/AMG510, T7, read-out: pIC50 (converted)
  IC50: 347 nM
MIAPaCa-2/AMG510 cells; MIAPaCa-2/AMG510, T11, read-out: IC50
  IC50: 270 nM
MIAPaCa-2/AMG510 cells; MIAPaCa-2/AMG510, T11, read-out: pIC50 (converted)
  IC50: 269 nM
MIAPaCa-2/AMG510 cells; MIAPaCa-2/AMG510, T4
  % max: 92%
MIAPaCa-2/AMG510 cells; MIAPaCa-2/AMG510, T7
  % max: 98%
MIAPaCa-2/AMG510 cells; MIAPaCa-2/AMG510, T11
  % max: 99%
MIAPaCa-2 cells; MIA PaCa-2, MIAPaCa-2, T4, read-out: IC50
  IC50: 1480 nM
MIAPaCa-2 cells; MIA PaCa-2, MIAPaCa-2, T4, read-out: pIC50 (converted)
  IC50: 1480 nM
MIAPaCa-2 cells; MIA PaCa-2, MIAPaCa-2, T7, read-out: IC50
  IC50: 870 nM
MIAPaCa-2 cells; MIA PaCa-2, MIAPaCa-2, T7, read-out: pIC50 (converted)
  IC50: 871 nM
MIAPaCa-2 cells; MIA PaCa-2, MIAPaCa-2, T11, read-out: IC50
  IC50: 520 nM
MIAPaCa-2 cells; MIA PaCa-2, MIAPaCa-2, T11, read-out: pIC50 (converted)
  IC50: 525 nM
MIAPaCa-2 cells; MIAPaCa-2, T4
  % max: 95%
MIAPaCa-2 cells; MIAPaCa-2, T7
  % max: 98%
MIAPaCa-2 cells; MIAPaCa-2, T11
  % max: 99%
KG-1 cells; 96 h, Day 4, Cell Titer-Glo, read-out: Day 4 IC50
  IC50: > 5000 nM
KG-1 cells; 168 h, Day 7, Cell Titer-Glo, read-out: Day 7 IC50
  IC50: > 5000 nM
KG-1 cells; 264 h, Day 11, Cell Titer-Glo, read-out: Day 11 IC50
  IC50: 4680 nM
KG-1 cells; 336 h, Day 14, Cell Titer-Glo, read-out: Day 14 IC50
  IC50: 4070 nM
KG-1 cells; T4, CellTiter-Glo, read-out: IC50
  IC50: > 5000 nM
KG-1 cells; T4, CellTiter-Glo, read-out: pIC50 (converted)
  IC50: > 5010 nM
KG-1 cells; T11, CellTiter-Glo, read-out: IC50
  IC50: 4680 nM
KG-1 cells; T11, CellTiter-Glo, read-out: pIC50 (converted)
  IC50: 4680 nM
KG-1 cells; T4, CellTiter-Glo
  % max: <50%
KG-1 cells; T11, CellTiter-Glo
  % max: 59%
OCI-AML-3 cells; OCI-AML-3, 96 h, OCI-AML-3, Day 4, Cell Titer-Glo, read-out: Day 4 IC50
  IC50: 830 nM
OCI-AML-3 cells; OCI-AML-3, 168 h, OCI-AML-3, Day 7, Cell Titer-Glo, read-out: Day 7 IC50
  IC50: 660 nM
OCI-AML-3 cells; OCI-AML-3, 264 h, OCI-AML-3, Day 11, Cell Titer-Glo, read-out: Day 11 IC50
  IC50: 580 nM
OCI-AML-3 cells; OCI-AML-3, 336 h, OCI-AML-3, Day 14, Cell Titer-Glo, read-out: Day 14 IC50
  IC50: 600 nM
OCI-AML-3 cells; OCI-AML-3, OCI-AML3, T4, CellTiter-Glo, read-out: IC50
  IC50: 830 nM
OCI-AML-3 cells; OCI-AML-3, OCI-AML3, T4, CellTiter-Glo, read-out: pIC50 (converted)
  IC50: 832 nM
OCI-AML-3 cells; OCI-AML-3, OCI-AML3, T11, CellTiter-Glo, read-out: IC50
  IC50: 580 nM
OCI-AML-3 cells; OCI-AML-3, OCI-AML3, T11, CellTiter-Glo, read-out: pIC50 (converted)
  IC50: 575 nM
OCI-AML-3 cells; T4, CellTiter-Glo
  % max: 97%
OCI-AML-3 cells; T11, CellTiter-Glo
  % max: 99%
MV4-11 cells; MV4-11, 96 h, MV4-11, Day 4, read-out: Day 4 IC50
  IC50: 420 nM
MV4-11 cells; MV4-11, 264 h, MV4-11, Day 11, read-out: Day 11 IC50
  IC50: 490 nM
MV4-11 cells; MV4-11, MV4-11, T4, read-out: IC50
  IC50: 420 nM
MV4-11 cells; MV4-11, MV4-11, T4, read-out: pIC50 (converted)
  IC50: 417 nM
MV4-11 cells; MV4-11, MV4-11, T11, read-out: IC50
  IC50: 490 nM
MV4-11 cells; MV4-11, MV4-11, T11, read-out: pIC50 (converted)
  IC50: 490 nM
MV4-11 cells; MV4-11, T4
  % max: 83%
MV4-11 cells; MV4-11, T11
  % max: 83%
MOLM-13 cells; MOLM-13, 96 h, MOLM-13, Day 4, read-out: Day 4 IC50
  IC50: 150 nM
MOLM-13 cells; MOLM-13, 264 h, MOLM-13, Day 11, read-out: Day 11 IC50
  IC50: 380 nM
MOLM-13 cells; MOLM-13, MOLM-13, T4, read-out: IC50
  IC50: 150 nM
MOLM-13 cells; MOLM-13, MOLM-13, T4, read-out: pIC50 (converted)
  IC50: 148 nM
MOLM-13 cells; MOLM-13, MOLM-13, T11, read-out: IC50
  IC50: 380 nM
MOLM-13 cells; MOLM-13, MOLM-13, T11, read-out: pIC50 (converted)
  IC50: 380 nM
MOLM-13 cells; MOLM-13, T4
  % max: 97%
MOLM-13 cells; MOLM-13, T11
  % max: 98%
Panc 10.05 cells; Panc1005, Panc 10.05, T4, read-out: IC50
  IC50: > 5000 nM
Panc 10.05 cells; Panc1005, Panc 10.05, T4, read-out: pIC50 (converted)
  IC50: > 5010 nM
Panc 10.05 cells; Panc1005, Panc 10.05, T7, read-out: IC50
  IC50: > 5000 nM
Panc 10.05 cells; Panc1005, Panc 10.05, T7, read-out: pIC50 (converted)
  IC50: > 5010 nM
Panc 10.05 cells; Panc1005, Panc 10.05, T11, read-out: IC50
  IC50: 4170 nM
Panc 10.05 cells; Panc1005, Panc 10.05, T11, read-out: pIC50 (converted)
  IC50: 4170 nM
Panc 10.05 cells; Panc 10.05, T4
  % max: <50%
Panc 10.05 cells; Panc 10.05, T7
  % max: <50%
Panc 10.05 cells; Panc 10.05, T11
  % max: 50%
SK-LU-1/AMG510 cells; SK-LU-1, SK-LU-1/AMG510, T4, read-out: IC50
  IC50: > 5000 nM
SK-LU-1/AMG510 cells; SK-LU-1, SK-LU-1/AMG510, T4, read-out: pIC50 (converted)
  IC50: > 5010 nM
SK-LU-1/AMG510 cells; SK-LU-1, SK-LU-1/AMG510, T7, read-out: IC50
  IC50: > 5000 nM
SK-LU-1/AMG510 cells; SK-LU-1, SK-LU-1/AMG510, T7, read-out: pIC50 (converted)
  IC50: > 5010 nM
SK-LU-1/AMG510 cells; SK-LU-1/AMG510, T11, read-out: IC50
  IC50: > 5000 nM
SK-LU-1/AMG510 cells; SK-LU-1/AMG510, T11, read-out: pIC50 (converted)
  IC50: > 5010 nM
SK-LU-1/AMG510 cells; SK-LU-1/AMG510, T4
  % max: <50%
SK-LU-1/AMG510 cells; SK-LU-1/AMG510, T7
  % max: <50%
SK-LU-1/AMG510 cells; SK-LU-1/AMG510, T11
  % max: <50%
